The text below walks through data of patent US20240252488A1 (KOREA RESEARCH INSTITUTE OF CHEMICAL TECHNOLOGY, priority 2020, published 2024).

One experiment deals with FADD−/− Jurkat cells. Nature of the experiment: Necroptosis inhibition assay, TNF-α-induced necroptosis (CellTiter-Glo 2.0). The format is cell-based, human. The settings on record: TNF-α 15 ng/mL; for Necroptosis inhibition assay (Rescue %) 1 μM: compound 1 μM; for Necroptosis inhibition assay (Rescue %) 10 μM: compound 10 μM. In short, it runs like this: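 Necroptosis induced by 15 ng/mL TNF-α (final) for 20–24 h at 37 °C, after a 30 min room-temperature pretreatment of FADD-deficient Jurkat cells with 0.1, 1 or 10 μM compound. ATP-based luminescence gave viability, from which inhibition rate and cytotoxicity were derived.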
For orientation: ATP-based viability assays read luminescence as a measure of living cells.

The target in experiment [1] is T1, MLKL (Homo sapiens, UniProt Q8NB16).
T1 sequence (Q8NB16 1-471): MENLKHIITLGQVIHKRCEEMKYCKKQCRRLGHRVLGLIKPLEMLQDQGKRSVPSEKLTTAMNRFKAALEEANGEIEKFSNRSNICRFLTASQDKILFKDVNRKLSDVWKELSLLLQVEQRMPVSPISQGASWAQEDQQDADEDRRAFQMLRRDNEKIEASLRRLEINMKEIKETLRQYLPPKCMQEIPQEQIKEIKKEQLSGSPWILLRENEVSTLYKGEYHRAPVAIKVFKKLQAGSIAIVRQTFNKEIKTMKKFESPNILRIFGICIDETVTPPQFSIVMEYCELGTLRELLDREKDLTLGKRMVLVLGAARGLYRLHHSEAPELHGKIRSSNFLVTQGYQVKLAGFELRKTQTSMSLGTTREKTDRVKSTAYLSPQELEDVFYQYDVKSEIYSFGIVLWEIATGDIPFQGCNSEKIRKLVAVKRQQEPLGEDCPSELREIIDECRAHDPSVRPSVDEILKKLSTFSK
Nature of the experiment: MLKL degradation assay in HepG2 cell line (western blot). The settings on record: cell line not given; for Degradation assay (Degradation %) 1 μM: compound 1 μM; for Degradation assay (Degradation %) 10 μM: compound 10 μM. The experiment is classed as cell-based. Details: endogenous in cells; host or cells: HepG2 or HaCaT. The method in brief: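 Western blot chemiluminescence of MLKL in equal-protein lysates (10-15 μg, BCA-adjusted). Before lysis, HepG2 cells were exposed to 1 or 10 μM (final) test compound for 20-24 h at 37 °C.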
(A western blot detects proteins with antibodies after separation by electrophoresis.)

Experiment [2] addresses T1, MLKL. Kind of experiment: Measurement of binding affinity with MLKL receptor (competitive binding assay, Kd). Details: made in house; host or cells: HEK 293 cell line (T7 phage in E. coli BL21-derived host is also described). In short, it runs like this:
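Competition binding of kinase tagged with DNA for qPCR detection, expressed in HEK 293 cells, against immobilized ligand on beads. Final DMSO 0.9%. Kd derived from kinase amount in eluates measured by qPCR.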

Broadly, the Kd is the concentration at which binding is half-saturated. A low value points to a tighter complex. On to `Nc1ncc(-c2cnn(C3CCN(CC4CCN(CCC5CCN(c6cc7c(cc6F)C(=O)N(C6CCC(=O)NC6=O)C7=O)CC5)CC4)CC3)c2)nc1C(=O)O[C@@H](C(=O)Nc1ccc(F)cc1)c1ccccc1` (stereo partly drawn) [TDH-513, (R)-2-((4-fluorophenyl)amino)-2-oxo-1-phenylethyl 3-amino-6-(1-(1-((1-(2-(1-(2-(2,6-dioxopiperidin-3-yl)-6-fluoro-1,3-dioxoisoindolin-5-yl)piperidin-4-yl)ethyl)piperidin-4-yl)methyl)piperidin-4-yl)-1H-pyrazol-4-yl)pyrazine-2-carboxylate], for which, in the experiment on FADD−/− Jurkat cells (FADD−/− Jurkat cells), the “Necroptosis inhibition assay (Rescue %) 1 μM” value was found to be 14.47% and the “Necroptosis inhibition assay (Rescue %) 10 μM” value is −61.68%. On MLKL [1], the “Degradation assay (Degradation %) 1 μM” value stood at 46.49% and the “Degradation assay (Degradation %) 10 μM” value was 75.71%. For the same compound, binding at MLKL [2] was put at a Kd of 3.9 nM.

As for `Nc1ncc(-c2cnn(C3CCN(CCCN4CCN(C(=O)CCc5cccc6c5C(=O)N(C5CCC(=O)NC5=O)C6=O)CC4)CC3)c2)nc1C(=O)O[C@@H](C(=O)Nc1ccc(F)cc1)c1ccccc1` (stereo partly drawn) [TDH-382, (R)-2-((4-fluorophenyl)amino)-2-oxo-1-phenylethyl 3-amino-6-(1-(1-(3-(4-(3-(2-(2,6-dioxopiperidin-3-yl)-1,3-dioxoisoindolin-4-yl)propanoyl)piperazin-1-yl)propyl)piperidin-4-yl)-1H-pyrazol-4-yl)pyrazine-2-carboxylate], in the experiment with FADD−/− Jurkat cells, the “Necroptosis inhibition assay (Rescue %) 1 μM” value came to 59.24% and the “Necroptosis inhibition assay (Rescue %) 10 μM” value was 22.12%. For the same compound, on MLKL [1], the “Degradation assay (Degradation %) 1 μM” value was 81.82% and the “Degradation assay (Degradation %) 10 μM” value is reported as 81.68%. This compound also came in with a Kd at MLKL [2] of 0.42 nM.

Regarding `Nc1ncc(-c2cnn(C3CCN(C(=O)C4CCN(C(=O)CNc5ccc6c(c5)C(=O)N(C5CCC(=O)NC5=O)C6=O)CC4)CC3)c2)nc1C(=O)O[C@@H](C(=O)Nc1ccc(F)cc1)c1ccccc1` (stereo partly drawn) [TDH-353, (R)-2-((4-fluorophenyl)amino)-2-oxo-1-phenylethyl 3-amino-6-(1-(1-(1-((2-(2,6-dioxopiperidin-3-yl)-1,3-dioxoisoindolin-5-yl)glycyl)piperidine-4-carbonyl)piperidin-4-yl)-1H-pyrazol-4-yl)pyrazine-2-carboxylate], in the experiment on FADD−/− Jurkat cells (compound 1.1 µM), the “Necroptosis inhibition assay (Rescue %) 1.1 μM” value is 55.34 (1.1µM) %. Also, the “Necroptosis inhibition assay (Rescue %) 10 μM” value in the experiment with FADD−/− Jurkat cells is on record as 49.23%. Also, at MLKL [1], the “Degradation assay (Degradation %) 1 μM” value stood at 75.35% and the “Degradation assay (Degradation %) 10 μM” value turned out to be 86.12%. This compound also showed a Kd on MLKL [2] of 26 nM.

`Nc1ncc(-c2cnn(C3CCN(CCOCCOCCOCCNC(=O)CNc4cccc5c4C(=O)N(C4CCC(=O)NC4=O)C5=O)CC3)c2)nc1C(=O)O[C@@H](C(=O)Nc1ccc(F)cc1)c1ccccc1` (stereo partly drawn) [TDH-143, (R)-2-((4-fluorophenyl)amino)-2-oxo-1-phenylethyl 3-amino-6-(1-(1-(1-((2-(2,6-dioxopiperidin-3-yl)-1,3-dioxoisoindolin-4-yl)amino)-2-oxo-6,9,12-trioxa-3-azatetradecan-14-yl)piperidin-4-yl)-1H-pyrazol-4-yl)pyrazine-2-carboxylate]: in the experiment with FADD−/− Jurkat cells, the “Necroptosis inhibition assay (Rescue %) 1 μM” value was determined as 20.58% and the “Necroptosis inhibition assay (Rescue %) 10 μM” value was determined as 64.35%. Besides, at MLKL [1], the “Degradation assay (Degradation %) 1 μM” value came out at 64% and the “Degradation assay (Degradation %) 10 μM” value is reported as 85.29%. The compound further displayed a Kd on MLKL [2] of 4.5 nM.
